Activity calls are given as the source filed them.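 The calls were made as follows: active = IC50 on parental Ba/F3 cells at or below 10 µM; inactive = IC50 above 10 µM.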

For this test, the system named is parental Ba/F3 viability, CellTiter-Glo ATP luminescence. As to the kind of experiment: cytotoxicity in parental murine Ba/F3 cells – cell-based, luminescence, counter-screen for JAK2V617F inhibitor project, dose response (AID 1699). Background: Counterscreens check selectivity or assay interference.
Usually IC50 stands for the concentration that gives 50% inhibition. For `COc1ccccc1C(C[N+](=O)[O-])c1c(N)n(C)c(=O)n(C)c1=O` (configuration not stated), the half-inhibitory concentration (IC50) was 6.49 µM. As to `O=C(C=C=Nc1ccccc1)C(=O)N=C=Cc1ccccc1`, the IC50 was 10.7 µM (inactive). As to `O=S(=O)(c1cnc(Cl)c(Br)c1)N1CCc2ccccc21`, the IC50 was 5.31 µM. Consider `COc1ccc([N+](=O)[O-])c(S(=O)(=O)c2ccc(Cl)cc2)n1`, for which the IC50 is 3.26 µM.

`CCCOc1ccc(C(=O)C(CN2CCOCC2)c2ccccc2)cc1` (configuration not stated): the IC50 is 2.46 µM.

Turning to `COC(=O)COc1cccc2c(=O)n(CC(=O)NCc3ccc(F)cc3)ccc12`, the half-maximal inhibitory concentration (IC50) was 3.34 µM. With `Cc1cc2[nH]c3c(c[n+](C)c4ccccc34)c2cc1C`, the half-maximal inhibitory concentration (IC50) is 3.85 µM. Consider `Cc1ccc2nc(C)cc(Nc3ccc([N+](=O)[O-])cc3)c2c1`, for which the concentration for half-maximal inhibition (IC50) was 3.31 µM. For the compound `CC1CCN(CCCNC(=O)c2cc3c(Cl)nc4ccccc4c3s2)CC1`, the half-inhibitory concentration (IC50) is 4.39 µM.

In the case of `O=C(CCl)NCc1cc(-c2ccc(Cl)cc2)no1`, the IC50 is 8.35 µM. For the compound `CCOc1ccc(Nc2nc(N)nc(CCl)n2)cc1`, the IC50 is 1.92 µM. In the case of `O=C1C=CCC(/C=C/c2ccccc2)O1` (configuration not stated), the half-inhibitory concentration (IC50) was 8.52 µM. With `Cc1cccc(CS(=O)(=O)c2nnc([C@H](Cc3ccccc3)NC(=O)OC(C)(C)C)o2)c1`, the 50% inhibitory concentration (IC50) is 3.64 µM. With `COc1ccc(-c2cc(-c3cc(C)ccc3O)[nH]n2)cc1`, the half-inhibitory concentration (IC50) is 8.76 µM. With `Cc1nn(Cc2ccc(Cl)cc2Cl)c(C)c1NC(=O)CCl`, the IC50 is 11.4 µM (inactive). Take `CCCn1c(CC)nc([N+](=O)[O-])c1S(=O)(=O)c1ccccc1`: the half-maximal inhibitory concentration (IC50) was 5.9 µM. Consider `CCCCCCN(C(=O)CCl)c1ccccc1`, for which the IC50 is 2.11 µM. As for `c1ccc2c(CN3CCCCCC3)c[nH]c2c1`, the figure is 10.7 µM (inactive); as for `O=S(=O)(c1cccs1)N1CCN(c2ccc(O)cc2)CC1`, 5.66 µM; as for `CCCc1nc2ccccc2c(=O)n1/N=C/c1ccc(O)c(O)c1`, 3.62 µM.

For the compound `Clc1ccc(-n2nnnc2Sc2ncnc3sccc23)cc1`, the half-inhibitory concentration (IC50) was 2.91 µM.

As to `CS(=O)(=O)c1nc(-c2ccco2)cc(C(F)(F)F)n1`, the half-inhibitory concentration (IC50) is 2.28 µM.

With `Cc1ccc(Nc2nc(N)nc(CCl)n2)cc1`, the IC50 is 1.42 µM.

For the compound `CCCn1c(CN(C)Cc2ccccc2)nc2c1c(=O)n(C)c(=O)n2C`, the IC50 was 8.17 µM. Take `Cc1oc2c(O)c(O)ccc2c(=O)c1-c1cnn(-c2ccccc2)c1`: the IC50 was 2.97 µM. As for `COc1ccc(OC)c(NS(=O)(=O)c2ccc(SC)cc2)c1`, the IC50 is 12.4 µM (inactive). In the case of `CCCC(=O)N(C1CC(C)C(C#N)(C#N)C1(C#N)C#N)N(C)C` (configuration not stated), the IC50 is 4.77 µM. As to `COC1(OC)C(/C=C/c2ccc(Cl)cc2)C(C#N)(C#N)C1(OC)OC` (configuration not stated), the IC50 is 7.83 µM. `Oc1ccc(/C=N/N2CCN(C3c4ccccc4-c4ccccc43)CC2)cc1O`: the IC50 was 5.68 µM. As for `Cc1ccc(Cn2ccsc2=NC(=O)CCl)cc1`, the figure is 7.76 µM; as for `O=C1C=CC(=O)N1CCNc1ncc(C(F)(F)F)cc1Cl`, 1.76 µM. For the compound `CC(C)(C)/C(O)=C/c1nc2cc(Cl)ccc2oc1=O`, the IC50 is 9.55 µM. For `O=C(CCl)N=c1sccn1Cc1ccc(Cl)cc1Cl`, the IC50 was 0.653 µM.

For the compound `CC(C)(C)OC(=O)N[C@@H](Cc1ccccc1)c1nnc(S(=O)(=O)Cc2cccc(F)c2)o1`, the IC50 was 3.74 µM. With `COc1cccc(N(C(=O)CCl)C(C(=O)NCCc2ccccc2)c2cccs2)c1` (configuration not stated), the IC50 is 1.34 µM. With `CC(C)(C)c1cc(NC(=O)CCl)n(-c2ccccc2)n1`, the half-inhibitory concentration (IC50) was 3.76 µM. The figure for `COc1ccccc1-c1nnc(Sc2nc([N+](=O)[O-])nn2C)o1` is 4.65 µM; for `Oc1ccccc1OCCOc1ccccc1OCCOc1ccccc1O` it is 7.12 µM; for `Cc1ccccc1CS(=O)(=O)c1nnc([C@H](CC(C)C)NC(=O)OC(C)(C)C)o1` it is 1.68 µM. With `CC1CCCN(CCCNC(=O)c2cc3c(Cl)nc4ccccc4c3s2)C1` (configuration not stated), the concentration for half-maximal inhibition (IC50) was 3.5 µM. `CCN(CC)S(=O)(=O)c1cccc(-n2c(O)c(C=Nc3ccccc3C(=O)O)c3ccccc3c2=O)c1`: the IC50 is > 40 µM (inactive). Turning to `N#C/C(=C\c1ccc(O)c(O)c1)C(=O)NCCCc1ccccc1`, the IC50 was 6.01 µM.

With `O=C(CCl)NC(=O)NC12CC3CC(CC(C3)C1)C2`, the IC50 was 4.37 µM.

On to `CCN1C/C(=C/c2ccc(OC)c(O)c2)C(=O)/C(=C/c2ccc(OC)c(O)c2)C1`, for which the IC50 was 1.5 µM.

Regarding `Nc1nc(CCl)nc(Nc2ccc3ccccc3c2)n1`, the IC50 was 1.08 µM. As for `CN(C)C(=S)SSC(=S)N(C)C`, the figure is 0.223 µM. For `CC1CCCC(NC(=O)NC(=O)CCl)C1C` (configuration not stated), the IC50 was 10.6 µM (inactive).

For `Cc1nn2c(NCc3ccccn3)c3c(nc2c1-c1ccccc1)CCC3`, the IC50 is 4.28 µM. As for `Cc1cccc(NC(=O)c2ccc([N+](=O)[O-])o2)c1`, the half-maximal inhibitory concentration (IC50) was 6.88 µM. Regarding `Nc1nc(N)c2nc(-c3ccccc3)c(N)nc2n1`, the IC50 was 4.61 µM. As for `Cc1cccc(Nc2nc(N)nc(CCl)n2)c1C`, the figure is 2.07 µM. For the compound `O=c1cnn([C@@H]2O[C@H](CO)[C@@H](O)[C@H]2O)c(=O)[nH]1`, the IC50 was 6.8 µM. Consider `COc1ccccc1N(C(=O)CCl)c1cn(C(C)=O)c2ccccc12`, for which the half-maximal inhibitory concentration (IC50) was 4.61 µM. On to `Oc1ccc(Cl)cc1N=Cc1sc2ccccc2c1Cl`, for which the IC50 was 5.94 µM.

In the case of `Cc1nc2c(=O)n(C)c(=O)n(C)c2nc1Cl`, the IC50 is 4.55 µM. The figure for `c1ccc2c(c1)CSc1sccc1C2=C1CCNCC1` is 10.5 µM (inactive). In the case of `CCCCn1c(=N)n(CC(=O)c2ccc(Br)s2)c2ccccc21`, the concentration for half-maximal inhibition (IC50) is 4.37 µM. With `O=c1oc2ccc(Cl)cc2nc1/C=C(\O)c1ccco1`, the IC50 is 8.35 µM. As for `COc1ccc(Nc2nc(N)nc(CCl)n2)cc1`, the IC50 was 2.66 µM. On to `COc1cc(/C=C2\COC/C(=C\c3ccc(O)c(OC)c3)C2=O)ccc1O`, for which the 50% inhibitory concentration (IC50) was 3.62 µM. In the case of `[O-][N+]1=c2ccc(Nc3ccccc3)cc2=NC12CCCCC2`, the 50% inhibitory concentration (IC50) was 5.2 µM. In the case of `Cc1[nH]c(=O)c(C(=O)/C=C/c2ccccc2F)c2c1CCCC2`, the IC50 is 5.19 µM. On to `COc1ccc(-c2cnc3c(c2)CCC3(C#N)C#N)cc1`, for which the concentration for half-maximal inhibition (IC50) is 2.07 µM. With `COC(=O)/C=C/c1ccc(OC(=O)OC)c(OC(=O)OC)c1`, the IC50 was 10.7 µM (inactive).

Consider `O=C(CCl)N=c1sccn1Cc1cccc2ccccc12`, for which the 50% inhibitory concentration (IC50) is 1.04 µM. For `Cc1ccc(C)c(Sc2ccc(NC(=O)CCl)cc2)c1`, the IC50 was 7.25 µM. For the compound `Cc1cccc(N(Cc2ccccc2)C(=O)CCl)c1`, the concentration for half-maximal inhibition (IC50) is 1.63 µM. The figure for `C#CCSc1nsc(SCC#C)c1C#N` is 2.83 µM; for `COc1ccc2nc(C)cc(Sc3nc4ccccc4s3)c2c1` it is 6.96 µM. Turning to `COc1cc2c(cc1OC)-c1cc(N3CCCc4ccccc43)nc(=O)n1CC2`, the IC50 is 35.6 µM (inactive).

As for `COc1cccc(F)c1C(C[N+](=O)[O-])c1c(N)n(C)c(=O)n(C)c1=O` (configuration not stated), the IC50 is 4.22 µM. Consider `COc1ccc(C2=Nn3c(nnc3C3CCCCC3)SC2)cc1OC`, for which the IC50 is 7.52 µM.

With `CCOc1ccc(C(=O)C(CN2CCOCC2)c2ccccc2)cc1` (configuration not stated), the 50% inhibitory concentration (IC50) is 2.4 µM. The figure for `O=C1C=C(Nc2ccc(O)cc2)C(=O)c2ccccc21` is 7.53 µM. `C/C(=C\c1ccc(N(C)C)cc1)[N+](=O)[O-]`: the half-maximal inhibitory concentration (IC50) was 3.5 µM.

With `COc1cccc(/C=N/NC(=O)c2[nH]c(C)c(C(=O)N/N=C/c3cccc(OC)c3O)c2C)c1O`, the IC50 was 6.66 µM. Consider `O=C(OCn1ncc(Cl)c(Cl)c1=O)c1ccc(F)cc1`, for which the IC50 was 1.14 µM. `COc1ccc(Nc2ccc3c(c2)=NC2(CCCCC2)[N+]=3[O-])cc1`: the half-maximal inhibitory concentration (IC50) is 1.71 µM. The figure for `Nc1nc(CCl)nc(N(c2ccccc2)c2ccccc2)n1` is 1.26 µM; for `COc1ccc(N2CCc3c(C)nc4c(OC)cc(OC)cc4c32)c(OC)c1` it is 8.32 µM.

Consider `CC(C)C1C(C#N)=C(N)Oc2n[nH]c(-c3ccc4ccccc4c3)c21` (configuration not stated), for which the IC50 is 3.56 µM.

As to `O=C1/C(=C/c2ccc(O)c(O)c2)SC(=S)N1Nc1ccccc1`, the IC50 is 11 µM (inactive). The figure for `O=C(NC1C=CS(=O)(=O)C1)c1sc2ccccc2c1Cl` (configuration not stated) is 13.8 µM (inactive); for `Cc1cc(SCC(=O)N/N=C/c2ccc(O)c(O)c2)c(C)cc1Br` it is 10.7 µM (inactive). `COc1ccc(-n2nnnc2SCC(=O)c2ccc(O)c(O)c2)cc1`: the IC50 was 3.34 µM. With `O=C(CSc1nnnn1-c1ccc(F)cc1)c1ccc(O)c(O)c1`, the IC50 is 11.1 µM (inactive).

On to `O=C(O)c1[nH]c(=O)[nH]c(=O)c1F`, for which the IC50 was 6.87 µM. The figure for `CN(c1ccccc1)S(=O)(=O)c1cccc(C(=O)NCCc2ccc(O)c(O)c2)c1` is > 40 µM (inactive); for `O=C(CCl)N(C/C=C/c1ccccc1)c1ccc2c(c1)OCCO2` it is 2.51 µM.

On to `O=C(Oc1cccc2c(O)cccc12)c1ccccc1`, for which the 50% inhibitory concentration (IC50) was 6.51 µM. Regarding `CNC(=O)c1nnsc1S(=O)c1ccc(Cl)cc1` (configuration not stated), the IC50 was 2.26 µM. For `CCC(C)[C@@H](NC(=O)OC(C)(C)C)c1nnc(S(=O)(=O)Cc2cccc(C)c2)o1` (some centres not stated), the half-maximal inhibitory concentration (IC50) was 4.67 µM.

`Cc1nc([N+](=O)[O-])c(Br)n1Cc1ccc(Cl)c(Cl)c1`: the half-inhibitory concentration (IC50) was 8.44 µM.

Take `O=C(/C=C/c1ccc(O)c(O)c1)c1ccc(S(=O)(=O)N2CCCCCC2)cc1`: the IC50 was 7.51 µM. `O=C(/C(=N/N=C/c1ccc(O)c(O)c1)c1ccccc1)c1ccccc1`: the IC50 is 1.67 µM. On to `O=C(Nc1cccc(NC(=O)c2cccs2)c1)c1ccc([N+](=O)[O-])o1`, for which the IC50 is 3.7 µM. As for `Cc1nc([N+](=O)[O-])c(Br)n1CC(=O)c1ccc2ccccc2c1`, the figure is 3.68 µM. For `O=S(=O)(c1cnc(Cl)c(Cl)c1)N1CCc2ccccc21`, the IC50 was 15.8 µM (inactive). `O=C(OCn1ncc(Cl)c(Cl)c1=O)c1ccccc1Cl`: the IC50 is 1.2 µM. With `Cc1ccccc1CS(=O)(=O)c1nnc([C@H](Cc2ccccc2)NC(=O)OC(C)(C)C)o1`, the IC50 was 5.33 µM.

`c1ccc(CCNc2nc(-c3ccccn3)nc3ccccc23)cc1`: the IC50 is 3.02 µM. As for `Cc1ccc(NC(=O)C(=Cc2ccc(C(=O)O)cc2)C(=O)Nc2ccc(C)cc2C)c(C)c1`, the concentration for half-maximal inhibition (IC50) was 5.46 µM.

Source of the values: PubChem BioAssay AID1699 (The Scripps Research Institute Molecular Screening Center, 2009).
